Source: PMC10649086 (Antimicrobial Agents and Chemotherapy, 2023)

Legend:
SARS-CoV-2 M^pro T135I [1] = biological target: T1, SARS-CoV-2 M^pro T135I (Severe acute respiratory syndrome coronavirus 2, UniProt P0DTC1, T3398I); conditions: cited from earlier work
SARS-CoV-2 M^pro G15S [2] = biological target: T2, SARS-CoV-2 M^pro G15S (Severe acute respiratory syndrome coronavirus 2, UniProt P0DTC1, G3278S); conditions: cited from earlier work
SARS-CoV-2 M^pro P132H = conditions: cited from earlier work
SARS-CoV-2 M^pro D248E [3] = biological target: T3, SARS-CoV-2 M^pro D248E (Severe acute respiratory syndrome coronavirus 2, UniProt P0DTC1, D3511E); conditions: cited from earlier work
SARS-CoV-2 M^pro H164N [4] = biological target: T4, SARS-CoV-2 M^pro H164N (Severe acute respiratory syndrome coronavirus 2, UniProt P0DTC1, H3427N); conditions: cited from earlier work
[5] = system: SARS-CoV-2-EGFP replicon L50F; format: cell-based
[6] = system: SARS-CoV-2 D614G B.1 (ancestral); format: cell-based
[7] = system: SARS-CoV-2-EGFP replicon L50F + E166A + L167F; format: cell-based
[8] = system: SARS-CoV-2-EGFP replicon L167F; format: cell-based
[9] = system: SARS-CoV-2-EGFP replicon E166A; format: cell-based
[10] = system: SARS-CoV-2-EGFP replicon L50F + E166A; format: cell-based
[11] = system: SARS-CoV-2-EGFP replicon T21I + L50F; format: cell-based
[12] = system: SARS-CoV-2-EGFP replicon S144A; format: cell-based
[13] = system: SARS-CoV-2-EGFP replicon T21I; format: cell-based
SARS-CoV-2 M^pro T135I [14] = biological target: T1, SARS-CoV-2 M^pro T135I; format: biochemical
[15] = biological target: SARS-CoV-2 M^pro L50F + E166V (Severe acute respiratory syndrome coronavirus 2, UniProt P0DTC1, E3429V/L3313F); format: biochemical
[16] = biological target: SARS-CoV-2 M^pro L50F + T304I (Severe acute respiratory syndrome coronavirus 2, UniProt P0DTC1, L3313F/T3567I); format: biochemical
SARS-CoV-2 M^pro E166V = SARS-CoV-2 M^pro E166V (Severe acute respiratory syndrome coronavirus 2, UniProt P0DTC1, E3429V); format: biochemical
SARS-CoV-2 M^pro G15S [17] = biological target: T2, SARS-CoV-2 M^pro G15S; format: biochemical
[18] = biological target: SARS-CoV-2 M^pro T21I + L50F (Severe acute respiratory syndrome coronavirus 2, UniProt P0DTC1, L3313F/T3284I); format: biochemical
[19] = biological target: SARS-CoV-2 M^pro T21I + A173V + T304I (Severe acute respiratory syndrome coronavirus 2, UniProt P0DTC1, A3436V/T3284I/T3567I); format: biochemical
[20] = biological target: SARS-CoV-2 M^pro T21I + A173V (Severe acute respiratory syndrome coronavirus 2, UniProt P0DTC1, A3436V/T3284I); format: biochemical
[21] = biological target: SARS-CoV-2 M^pro T135I + T304I (Severe acute respiratory syndrome coronavirus 2, UniProt P0DTC1, T3398I/T3567I); format: biochemical
[22] = biological target: SARS-CoV-2 M^pro L50F + A173V (Severe acute respiratory syndrome coronavirus 2, UniProt P0DTC1, A3436V/L3313F); format: biochemical
[23] = biological target: SARS-CoV-2 M^pro L50F + F140L + L167F + T304I (Severe acute respiratory syndrome coronavirus 2, UniProt P0DTC1, F3403L/L3313F/L3430F/T3567I); format: biochemical
[24] = biological target: SARS-CoV-2 M^pro T21I + E166V (Severe acute respiratory syndrome coronavirus 2, UniProt P0DTC1, E3429V/T3284I); format: biochemical
SARS-CoV-2 M^pro L50F = SARS-CoV-2 M^pro L50F (Severe acute respiratory syndrome coronavirus 2, UniProt P0DTC1, L3313F); format: biochemical
[25] = biological target: SARS-CoV-2 M^pro H172Y + P252L (Severe acute respiratory syndrome coronavirus 2, UniProt P0DTC1, H3435Y/P3515L); format: biochemical
SARS-CoV-2 M^pro H164N [26] = biological target: T4, SARS-CoV-2 M^pro H164N; format: biochemical
[27] = biological target: SARS-CoV-2 M^pro T21I + T304I (Severe acute respiratory syndrome coronavirus 2, UniProt P0DTC1, T3284I/T3567I); format: biochemical
[28] = biological target: SARS-CoV-2 M^pro L50F + E166A (Severe acute respiratory syndrome coronavirus 2, UniProt P0DTC1, E3429A/L3313F); format: biochemical
SARS-CoV-2 M^pro K90R = SARS-CoV-2 M^pro K90R (Severe acute respiratory syndrome coronavirus 2, UniProt P0DTC1, K3353R); format: biochemical
[29] = biological target: SARS-CoV-2 M^pro T21I + S144A (Severe acute respiratory syndrome coronavirus 2, UniProt P0DTC1, S3407A/T3284I); format: biochemical
SARS-CoV-2 M^pro T21I = SARS-CoV-2 M^pro T21I (Severe acute respiratory syndrome coronavirus 2, UniProt P0DTC1, T3284I); format: biochemical
SARS-CoV-2 M^pro D248E [30] = biological target: T3, SARS-CoV-2 M^pro D248E; format: biochemical
SARS-CoV-2 M^pro H172Y = SARS-CoV-2 M^pro H172Y (Severe acute respiratory syndrome coronavirus 2, UniProt P0DTC1, H3435Y); format: biochemical
SARS-CoV-2 M^pro A260V = SARS-CoV-2 M^pro A260V (Severe acute respiratory syndrome coronavirus 2, UniProt P0DTC1, A3523V); format: biochemical
SARS-CoV-2 M^pro E166A = SARS-CoV-2 M^pro E166A (Severe acute respiratory syndrome coronavirus 2, UniProt P0DTC1, E3429A); format: biochemical
[31] = biological target: SARS-CoV-2 M^pro T21I + C160F + A173V+ V186A + T304I (Severe acute respiratory syndrome coronavirus 2, UniProt P0DTC1, A3436V/C3423F/T3284I/T3567I/V3449A); format: biochemical
[32] = biological target: SARS-CoV-2 M^pro T21I + S144A + T304I (Severe acute respiratory syndrome coronavirus 2, UniProt P0DTC1, S3407A/T3284I/T3567I); format: biochemical
SARS-CoV-2 M^pro Q189K = SARS-CoV-2 M^pro Q189K (Severe acute respiratory syndrome coronavirus 2, UniProt P0DTC1, Q3452K); format: biochemical
[33] = biological target: SARS-CoV-2 M^pro L50F + E166A + L167F (Severe acute respiratory syndrome coronavirus 2, UniProt P0DTC1, E3429A/L3313F/L3430F); format: biochemical
SARS-CoV-2 M^pro S144A = SARS-CoV-2 M^pro S144A (Severe acute respiratory syndrome coronavirus 2, UniProt P0DTC1, S3407A); format: biochemical
[34] = biological target: SARS-CoV-2 M^pro T21I + L50F + A193P + S301P (Severe acute respiratory syndrome coronavirus 2, UniProt P0DTC1, A3456P/L3313F/S3564P/T3284I); format: biochemical
[35] = biological target: SARS-CoV-2 M^pro A173V + T304I (Severe acute respiratory syndrome coronavirus 2, UniProt P0DTC1, A3436V/T3567I); format: biochemical

**Q.** What does the source list for `CC(C)(C)[C@H](NC(=O)C(F)(F)F)C(=O)N1C[C@H]2[C@@H]([C@H]1C(=O)N[C@H](C#N)C[C@@H]1CCNC1=O)C2(C)C` [nirmatrelvir]?
**A.** resistance in the Mpro assay (SARS-CoV-2 M^pro T135I [1]): ~fourfold; resistance in the Mpro assay (SARS-CoV-2 M^pro G15S [2]): ~fourfold; effect of P132H variant on inhibition (SARS-CoV-2 M^pro P132H): no effect; resistance in the Mpro assay (SARS-CoV-2 M^pro D248E [3]): ~fourfold; resistance in the Mpro assay (SARS-CoV-2 M^pro H164N [4]): ~fourfold

**Q.** Which EC50 ([5]; read-out: EC50 Mean (SD)) does the source give for `N#C[C@H](C[C@@H]1CCCNC1=O)NC(=O)[C@H](CC1CC1)NC(=O)c1cc2cccc(Cl)c2[nH]1` [pomotrelvir] here?
**A.** 14 nM

**Q.** And the EC90 ([5]; read-out: EC90 Mean (SD))?
**A.** 150 nM

**Q.** What about the EC50 ([6]; read-out: EC50 Mean (SD)) of the same compound?
**A.** 151 nM

**Q.** And the EC90 ([6]; read-out: EC90 Mean (SD))?
**A.** 547 nM

**Q.** And the EC50 ([7]; read-out: EC50 Mean (SD))?
**A.** 1400 nM

**Q.** And the EC90 ([7]; read-out: EC90 Mean (SD))?
**A.** 8300 nM

**Q.** What about the EC50 ([8]; read-out: EC50 Mean (SD)) of the same compound?
**A.** 56 nM

**Q.** And the EC90 ([8]; read-out: EC90 Mean (SD))?
**A.** 510 nM

**Q.** And the EC50 ([9]; read-out: EC50 Mean (SD))?
**A.** 110 nM

**Q.** What about the EC90 ([9]; read-out: EC90 Mean (SD)) of the same compound?
**A.** 710 nM

**Q.** And the EC50 ([10]; read-out: EC50 Mean (SD))?
**A.** 410 nM

**Q.** What about the EC90 ([10]; read-out: EC90 Mean (SD)) of the same compound?
**A.** 1800 nM

**Q.** What about the EC50 ([11]; read-out: EC50 Mean (SD)) of the same compound?
**A.** 110 nM

**Q.** What about the EC90 ([11]; read-out: EC90 Mean (SD)) of the same compound?
**A.** 780 nM

**Q.** And the EC50 ([12]; read-out: EC50 Mean (SD))?
**A.** 92 nM

**Q.** And the EC90 ([12]; read-out: EC90 Mean (SD))?
**A.** 560 nM

**Q.** And the EC50 ([13]; read-out: EC50 Mean (SD))?
**A.** 33 nM

**Q.** And the EC90 ([13]; read-out: EC90 Mean (SD))?
**A.** 270 nM

**Q.** Which results are given for GC376?
**A.** IC50 (SARS-CoV-2 M^pro T135I [14]): 20 nM; IC50 [15]: 430 nM; IC50 [16]: 60 nM; IC50 (SARS-CoV-2 M^pro E166V): 660 nM; IC50 (SARS-CoV-2 M^pro G15S [17]): 20 nM; IC50 [18]: 20 nM; IC50 [19]: 90 nM; IC50 [20]: 80 nM; IC50 [21]: 70 nM; IC50 [22]: 60 nM; IC50 [23]: 170 nM; IC50 [24]: 590 nM; IC50 (SARS-CoV-2 M^pro L50F): 20 nM; IC50 [25]: 280 nM; IC50 (SARS-CoV-2 M^pro H164N [26]): 80 nM; IC50 [27]: 50 nM; IC50 [28]: 270 nM; IC50 (SARS-CoV-2 M^pro K90R): 10 nM; IC50 [29]: 120 nM; IC50 (SARS-CoV-2 M^pro T21I): 20 nM; IC50 (SARS-CoV-2 M^pro D248E [30]): 30 nM; IC50 (SARS-CoV-2 M^pro H172Y): 410 nM; IC50 (SARS-CoV-2 M^pro A260V): 20 nM; IC50 (SARS-CoV-2 M^pro E166A): 320 nM; IC50 [31]: 90 nM; IC50 [32]: 190 nM; IC50 (SARS-CoV-2 M^pro Q189K): 50 nM; IC50 [33]: 760 nM; IC50 (SARS-CoV-2 M^pro S144A): 120 nM; IC50 [34]: 70 nM; IC50 [35]: 100 nM
